In patent US20240385182A1, “MASKED FLUOROGENIC LIPID COMPOUNDS, LIPID PARTICLES COMPRISING THE SAME, AND METHODS OF USE THEREOF” (Rutgers, The State University of New Jersey, priority 2023, published 2024):

Tests used:
[1] = Confocal imaging of H2S-sensing giant vesicles; settings: GVs with POPC, POPG, cholesterol; H2S (500 μM) over 1 hour
Excerpt: FIGS. 14A-14B: giant vesicles (GVs) that can sense reductive (FIG. 14A) or oxidative (FIG. 14B) environments. Confocal images acquired for H2S-sensing GV at 405/475 nm (ex/em) (FIG. 14A) and H2O2 sensing GV at 490/520 nm (ex/em) (FIG. 14B). Lipid compositions of GVs: POPC, POPG, cholesterol, and DPPC-TC-H2S (48:21:30:1 molar ratio; FIG. 14A); and POPC, POPG, cholesterol, and DPPC-TF-H2O2 (48.5:21:30:0.5; FIG. 14B). To label vesicle membranes, Liss-Rhod PE dye (563/580 nm) was introduced to the lipid mixture at an insignificant molar ratio (0.1 mol %). Concentrations of RSS and ROS were set to 500 and 100 μM, respectively. Scale bar=5 μm.
The redox sensing abilities of giant vesicles (GVs) comprising DPPC-TC-H2S or DPPC-TF-H2O2 were investigated. In most biomimetic systems that rely on compartmentalization, physical membrane boundaries are comprised of phospholipids and cholesterol. These lipid self-assemblies have dimensional properties (1-30 μm in diameter) relevant to those of a mammalian plasma membrane (10-100 μm), display physical characteristics feasible for confocal fluorescence imaging, and are conveniently utilized for bottom-up construction of biomimetic protocells. […]
The vesicle size distribution was analyzed by dynamic light scattering (DLS), confirming the presence of GVs. […]

[2] = Photophysical characterization of probes and uncaged forms (relative fluorescence quantum yield, extinction coefficient, brightness); format: physicochemical; settings: for Relative Brightness: Table 3; for Brightness: in M⁻¹·cm⁻¹ (unit assumed)
Description: The pKa of TEG-TC was determined to be 7.1±0.1 using UV-Vis spectrophotometric measurements. Under the confocal imaging conditions (pH 7.5-8.5 with cell-free assays, pH 7.4 with cells), a substantial population of the 7-hydroxycoumarin should exist in its aryloxide form. The change in coumarin fluorogenicity was assessed upon uncaging the probes from the oxobutylphenyl carbonate by measuring the relative fluorescence quantum yield (ΦFrel) values (Table 2). Coumarin 343 was used as a standard, which has an absolute fluorescence quantum yield ([…]) of 0.63 in ethanol. The ΦFrel values of TEG-TC-ONOO^− (entry 1) and DPPC-TC-ONOO^− (entry 3) were measured as 0.08 and 0.09, respectively. […] The ΦFrel values for TEG-TC (entry 2) and DPPC-TC (entry 4), which were synthesized independently, were measured as 0.66 and 0.64, respectively.
Next, the impact of caging and uncaging of the coumarin or fluorescein moieties on their fluorogenicity was assessed by measuring the relative fluorescence quantum yield (ΦFrel) values (Table 3). Coumarin 343 was used as the standard for measuring ΦFrel of the triazole-coumarin compounds (TEG-TC-H2S, TEG-TC, DPPC-TC-H2S, and DPPC-TC) whereas fluorescein for the triazole-fluorescein compounds (TEG-TF-H2O2, TEG-TF, and DPPC-TF-H2O2, and DPPC-TF). Relative to coumarin 343, whose absolute fluorescence quantum yield (ΦF) is 0.63 in ethanol, ΦFrels of the H2S probes TEG-TC-H2S (entry 1) and DPPC-TC-H2S (entry 3) were determined to be 0.07 and 0.03, respectively.
The pKa of TEG-TC was previously found to be to be 7.1±0.1 using UV-Vis spectrophotometric measurements. Under the fluorescence activation assay conditions that are employed here (Tris 50 mM, pH 7.5), a substantial population of the coumarin moiety is expected to be in its aryloxide anion form. Relative to fluorescein, whose ΦF is 0.79 in ethanol, ΦFrel values of the H2O2 probes TEG-TF-H2O2 (entry 5) and DPPC-TF-H2O2 (entry 7) were determined to be 0.04 and 0.02, respectively.

[3] = Fluorescence activation and LoD of TEG-TF-H2O2 with H2O2 in Tris buffer
Description: FIGS. 13A-13D: specificity (FIGS. 13A-13B) and limit of detection (LoD) (FIGS. 13C-13D) of TEG-TC-H2S and TEG-TF-H2O2. LoD measurements for the probes TEG-TC-H2S (390/475 nm) and TEG-TF-H2O2 (485/525 nm) were performed in Tris buffer (50 mM, pH 7.5). Error bars represent the standard deviation; n=3. Single-tailed Student's t test: *, P<0.05; **, P<0.01; ***, P<0.001; ****, P<0.0001.
(§1) The redox-specificities of the non-amphiphilic probes, TEG-TC-H2S or TEG-TF-H2O2, were assessed by subjecting them to various RSS or ROS (FIGS. 13A-13B). Change in fluorescence intensity following excitation of each sample containing the respective probe was measured over 120 minutes of incubation and presented based on the signal-to-background ratio F/F0, where F and F0 are defined as the fluorescence with and without the redox species. The F/F0 of the untreated samples were set to 1 for comparisons. […] Samples containing TEG-TF-H2O2 and treated with 100 μM H2O2 presented a steady fluorescence enhancement within 2 hours, resulting in 4.4-fold higher fluorescence than those of the untreated samples (FIG. 13B).
(§2) The specificity of TEG-TC-H2S toward H2S was evaluated by comparing its reactivity against different RSS, cysteine (Cys), glutathione (GSH), sulfite (SO3^2−), and thiosulfate (S2O3^2−). At 1 mM initial concentration and a total incubation time of 2 hours, these sulfur species induced an increase in coumarin fluorescence by less than 25% compared to the untreated sample (FIG. 13A). […] The specificity of TEG-TF-H2O2 toward H2O2 was also assessed, by incubating the samples containing TEG-TF-H2O2 with 100 μM either hydroxyl radical (·OH), nitric oxide (NO), or superoxide radical (O2·^−) for 2 hours. Among these three reactive oxygen species, ·OH induced the highest fluorescence increase (2.2-fold), which was lower than that for H2O2 (4.4-fold). The relatively low yet observable reactivity of ·OH may have been due, in large part, to the residual unreacted H2O2 used for generating ·OH. […]

[4] = Specificity of TEG-TF-H2O2 against other ROS; settings: ·OH 100 μM, 2 hours
Description: as §1
as §2, with “hours.” for “hours. Among these three reactive oxygen species, ·OH induced the highest fluorescence increase (2.2-fold), which was lower than that for H2O2 (4.4-fold). The relatively low yet observable reactivity of ·OH may have been due, in large part, to the residual unreacted H2O2 used for generating ·OH.”

Row | Emmax [2] [nm] | Exmax [2] [nm] | Ext. Coeff. [2] [M⁻¹ cm⁻¹] | Relative Brightness ([2]; brightness compared to that of DPPC-TC-H2S) | Brightness [2] | Quantum Yield (relative fluorescence quantum yield ΦFrel) ([2]; standard coumarin 343) | fluorescence increase of the untreated sample compared to the fluorescence at 1 min (possible hydrolysis) ([3]; no redox species, pH 7.5, 120 minutes) [%] | Relative Brightness ([2]; brightness compared to that of DPPC-TF-H2O2) | Quantum Yield (relative fluorescence quantum yield ΦFrel) ([2]; standard fluorescein) | SMILES | GV fluorescence [1] | fluorescence compared to untreated samples ([3]; 100 μM H2O2, 2 hours, Tris pH 7.5) [fold] | LoD ([3]; minimum H2O2 concentration at which F is statistically higher than F0, 485/525 nm, Tris 50 mM pH 7.5) [µM] | fluorescence increase [4] [fold]
1 | 473.5 | 396.5 | 24111 | 1.0 | 72 | 0.03 |  |  |  | CCCCCCCCCCCCCCCC(=O)OCC(COP(=O)([O-])OCC[N+](C)(C)Cc1cn(-c2cc3ccc(OCc4ccc(N=[N+]=[N-])cc4)cc3oc2=O)nn1)OC(=O)CCCCCCCCCCCCCCC (racemic) [DPPC-TC-H2S] | significant increase in fluorescence |  |  | 
2 | 526.0 | 492.0 | 13429 |  | 537 |  | 277 | 2.5 | 0.04 | CC1(C)OB(c2ccc(COC(=O)Oc3ccc4c(c3)Oc3cc(OC(=O)OCc5ccc(B6OC(C)(C)C(C)(C)O6)cc5)ccc3C43OC(=O)c4cc(-n5cc(COCCOCCOCCO)nn5)ccc43)cc2)OC1(C)C [TEG-TF-H2O2] |  | 4.4 | 10 | 2.2
